Results published in patent US10174067B2, “Type of cytidine derivative and application thereof” (priority 2014, dated 2019).

Test: in vivo
Conditions: female, mouse, in vivo, ip
Procedure, shortened: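 MTD, the dose without mortality, body-weight loss over 10% from Day 0 or marked adverse signs, was found by stepwise up/down single intraperitoneal dosing of female SPF ICR mice. Vehicle: ethanol:Cremophor EL:saline 5:5:90. Animals weighed daily and clinically checked twice daily for up to 14 days.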

Question: For `O=C(COc1nc(Cl)c(Cl)cc1Cl)OC[C@H]1O[C@@H](n2cc(Br)c(NC(=O)OCc3ccccc3)nc2=O)C(F)(F)C1O` (some centres unmarked) [Compound G10], which MTD at 7 days is on record?
Answer: 400 mg/kg

Question: Which MTD at 7 days does the source give for `CCCCOC(=O)Nc1nc(=O)n([C@@H]2O[C@H](COC(=O)Cn3cnc([N+](=O)[O-])c3)C(O)C2(F)F)cc1I` (some centres unmarked) [Compound G12] here?
Answer: 400 mg/kg
